How the values were obtained:
SLCO2A1 R445C mutant = SLCO2A1 R445C mutant (Homo sapiens, UniProt Q92959, R445C); test: 6-CF uptake assay, HEK293F cells expressing SLCO2A1 R445C; type: cell-based; settings: 50 μM 6-CF
SLCO2A1 S346A mutant = SLCO2A1 S346A mutant (Homo sapiens, UniProt Q92959, S346A); type: cell-based
SLCO2A1 C448A mutant = SLCO2A1 C448A mutant (Homo sapiens, UniProt Q92959, C448A); test: 6-CF uptake assay, HEK293F cells expressing SLCO2A1 C448A; type: cell-based; settings: C448A mutant vs WT
SLCO2A1 [1] = settings: read-out: Km for 6-CF reported in a previous study; cited from earlier work
SLCO2A1 E465K mutant = SLCO2A1 E465K mutant (Homo sapiens, UniProt Q92959, E465K); test: 6-CF uptake assay, HEK293F cells expressing SLCO2A1 E465K; type: cell-based; settings: E465K mutant vs WT
SLCO2A1 C420F mutant = SLCO2A1 C420F mutant (Homo sapiens, UniProt Q92959, C420F); test: 6-CF uptake assay, HEK293F cells expressing SLCO2A1 C420F; type: cell-based; settings: C420F mutant vs WT
SLCO2A1 Y90A mutant = SLCO2A1 Y90A mutant (Homo sapiens, UniProt Q92959, Y90A); test: 6-CF uptake assay, HEK293F cells expressing SLCO2A1 Y90A; type: cell-based; settings: 50 μM 6-CF
SLCO2A1 W565F mutant = SLCO2A1 W565F mutant (Homo sapiens, UniProt Q92959, W565F); test: 6-CF uptake assay, HEK293F cells expressing SLCO2A1 W565F; type: cell-based; settings: 50 μM 6-CF
SLCO2A1 C143A mutant = SLCO2A1 C143A mutant (Homo sapiens, UniProt Q92959, C143A); test: 6-CF uptake assay, HEK293F cells expressing SLCO2A1 C143A; type: cell-based; settings: C143A mutant vs WT
human SLCO2A1 = human SLCO2A1 (Homo sapiens, UniProt Q92959); test: 6-CF uptake assay in HEK293F cells expressing SLCO2A1 WT
SLCO2A1 [2] = settings: read-out: IC50 in competitively inhibiting radioactive PGE2; pH 7.4; cited from earlier work

6-CF uptake (percentage of SLCO2A1-WT) (SLCO2A1 R445C mutant) | increase in 6-CF uptake activity (SLCO2A1 S346A mutant) | reduction of the 6-CF uptake activity (SLCO2A1 C448A mutant) | decrease of 6-CF uptake activity (SLCO2A1 E465K mutant) | decrease of 6-CF uptake activity (SLCO2A1 C420F mutant) | 6-CF uptake (percentage of SLCO2A1-WT) (SLCO2A1 Y90A mutant) | 6-CF uptake (percentage of SLCO2A1-WT) (SLCO2A1 W565F mutant) | reduction of the 6-CF uptake activity (SLCO2A1 C143A mutant) | IC50 (human SLCO2A1) | IC50 (6-CF uptake) relative to IC50 (radioactive PGE2, pH 7.4) (human SLCO2A1; IC50 2.21 μM vs 0.17 μM) | Compound | Km (SLCO2A1 [1]) | IC50 (SLCO2A1 [2])
60% | 1.5 fold | ~55% | more than 80% | more than 80% | 60% | ~50% | approximately 80% |  |  | 6-Carboxyfluorescein [6-CF] | 270 ± 40.7 µM | 
 |  |  |  |  |  |  |  | 2210 ± 370 nM | 13 fold | Cc1ccc(C(=O)Nc2ccc(S(=O)(=O)O)c3cc(S(=O)(=O)O)cc(S(=O)(=O)O)c23)cc1NC(=O)c1cccc(NC(=O)Nc2cccc(C(=O)Nc3cc(C(=O)Nc4ccc(S(=O)(=O)O)c5cc(S(=O)(=O)O)cc(S(=O)(=O)O)c45)ccc3C)c2)c1 [suramin] |  | 170 nM

— PMC12398505 (Nature Communications, 2025)
